Results published in patent US9783546B2, “Compounds” (GlaxoSmithKline Intellectual Property Development Limited, priority 2014, dated 2017).

How the values were obtained:
[1] = tested on: experimental autoimmune encephalomyelitis (EAE) rats; experiment: Rat experimental autoimmune encephalomyelitis (EAE) model, preventive treatment; assay type: in vivo; conditions: rats immunized with MBP
Procedure: A further study was carried out to study the impact of Lp-PLA2 inhibitors on modulating M1/M2 imbalance. In this study, rats were induced to develop experimental autoimmune encephalomyelitis (EAE) by immunization with myelin basic protein (MBP) antigen and treated with a known Lp-PLA2 inhibitor: 5-(9-Methoxy-4-oxo-6,7-dihydro-4H-pyrimido[6,1-a]isoquinolin-2-yl)oxy)-2-(3-(trifluoromethyl)phenoxy)benzonitrile (See PCT application no. PCT/CN2011/001597). In this preventive treatment model, the compound was administered at day 0 (day of immunization) and continued to administer until day 22. The study lasted for 25 days. Rats were subsequently monitored for symptoms of EAE. Rats were immunized with MBP to develop EAE and symptoms were monitored daily. Plasma Lp-PLA2 activity, OxLDL, and LysoPC concentration were determined at different time points through the course of EAE.

[2] = tested on: proinflammatory (M1) and anti-inflammatory (M2) markers in macrophages; experiment: Ex vivo analysis of M1 and M2 markers in macrophages of EAE rats by realtime PCR; design: species or system rat; conditions: splenic macrophages at day 13 post MBP-immunization and CNS infiltrating macrophages
Procedure: Ex vivo analysis of proinflammatory (M1) and anti-inflammatory (M2) markers in control and compound treated EAE rats. Splenic macrophages were harvested at day 13 post MBP-immunization and assayed for expression of a variety of markers by realtime PCR. CNS infiltrating cells were harvested and macrophages were analyzed for expression of M1 and M2 markers by realtime PCR.

Lp-PLA2 in human plasma = molecular target: T1, Lp-PLA2 in human plasma (Homo sapiens, UniProt Q13093); experiment: Lp-PLA2 Human Plasma assay, Thio-PAF assay; assay type: biochemical; conditions: pooled human plasma, 2-thio-PAF substrate; read-out: pIC50 value in the Lp-PLA2 human plasma assays (converted)
T1 construct: from tissue; host or cells: pooled human plasma
T1 sequence (Q13093 22-441): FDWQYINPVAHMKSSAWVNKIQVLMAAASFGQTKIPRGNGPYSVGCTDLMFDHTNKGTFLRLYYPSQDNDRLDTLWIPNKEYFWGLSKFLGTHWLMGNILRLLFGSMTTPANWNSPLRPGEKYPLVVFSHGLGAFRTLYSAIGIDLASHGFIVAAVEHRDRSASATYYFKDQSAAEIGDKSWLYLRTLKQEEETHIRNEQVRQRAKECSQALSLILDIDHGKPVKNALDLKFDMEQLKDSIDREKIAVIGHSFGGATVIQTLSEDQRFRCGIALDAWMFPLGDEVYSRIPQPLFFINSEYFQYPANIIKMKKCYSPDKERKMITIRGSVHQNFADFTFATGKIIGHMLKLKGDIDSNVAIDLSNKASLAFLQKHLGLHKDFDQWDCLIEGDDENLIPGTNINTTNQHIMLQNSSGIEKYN
Description: (3) Lipoprotein-associated phospholipase A2 (Lp-PLA2) Human Plasma assay-Thio-PAF assay
The human plasma assay utilizes a thioester analog of PAF (phosphatidylcholine), where hydrolysis yields to the formation of a phospholipid containing a free thiol group. The amount of thiol is quantitated continuously by reacting with CPM (7-diethylamino-3-(4′-maleimidylphenyl)-4-methylcoumarin), a maleimide which increases in fluoresence after Michael addition of thiols. This assay may detect the activity of Lp-PLA2 in human plasma, as determined by specific inhibition by Lp-PLA2 inhibitors.
The thio-PAF assay was run as a quenched 15 μL assay. Compounds source plate was prepared by making 1:3 (by volume) serial dilution of the compounds into pure DMSO on 384-well microplate. […] of compounds on compound source plate were transferred to 384 well Greiner 784076 (black) low-volume plates by ECHO liquid dispenser. 8 μL pooled human plasma, which was previously aliquoted and frozen, was added. Plates were centrifuged for 10 sec at 500 rpm. […] Plates were read at ex: 380/em: 485 using Envision microplate reader. […]

[3] = molecular target: T2, recombinant human Lp-PLA2 (Homo sapiens, UniProt Q13093); experiment: Recombinant human Lp-PLA2 assay (rhLp-PLA2), PED6 assay; assay type: biochemical; conditions: PED6 substrate, 30 minutes preincubation; read-out: rhLp-PLA2 (pIC50) (converted)
T2 sequence (Q13093 22-441): T1 sequence (Q13093 22-441)
Description: (1) Recombinant human Lp-PLA2 assays (rhLp-PLA2)-PED6 assay
N-((6-(2,4-dinitrophenyl)amino)-hexanoyl)-2-(4,4-difluoro-5,7-dimethyl-4-bora-3a,4a-diaza-s-indacene-3-pentanoyl)-1-hexadecanoyl-sn-glycero-3-phosphoethanolamine, triethylammonium salt (PED6) is a commercially available fluorescently-labeled phospholipid, which is commercially available from Invitrogene and Molecular Probes. There is a quenching para-nitro phenyl (PNP) group in the sn3 position and a Bodipy fluorescein (FL) group in the sn2 position. Upon cleavage with Lp-PLA2, the Bodipy FL group is liberated and then may result in an increase in fluorescence. Inhibitors of Lp-PLA2 therefore prevent this cleavage and no fluorescent increase is observed.
The PED6 assay was run as an unquenched 10 μL assay. The source plate containing the compounds to be tested was prepared by making 1:3 (by volume) serial dilution of the compounds within DMSO on 384-well microplate. Then, 0.01 μL of the compounds on compound source plate were transferred into 384 well Greiner 784076 (black) plates using ECHO liquid dispenser. […] The plates were read for fluorescence intensity at ex: 480/em: 540 using ViewLux microplate imager for Envision spectrofluroimeters. pIC50 data, curve and QC analysis was conducted by using XL fit module in Excel. […]

[4] = compound administered day 0 until day 22, plasma

| Structure (SMILES) | clinical disease (EAE) ([1]; compound administered day 0 until day 22) | Lp-PLA2 activity in rat EAE plasma [1, 4] | LysoPC levels in rat EAE plasma [1, 4] | M1 markers expression [2] | M2 markers expression [2] | IC50 (Lp-PLA2 in human plasma) [nM] | IC50 [3] [nM] |
| --- | --- | --- | --- | --- | --- | --- | --- |
| COc1ccc2c(c1)CCn1c-2cc(Oc2ccc(Oc3cccc(C(F)(F)F)c3)c(C#N)c2)nc1=O [5-(9-Methoxy-4-oxo-6,7-dihydro-4H-pyrimido[6,1-a]isoquinolin-2-yl)oxy)-2-(3-(trifluoromethyl)phenoxy)benzonitrile] | reduction in clinical disease | decreased Lp-PLA2 activity | decreased | decrease in M1 markers | increase in M2 markers | – | – |
| O=c1nc(OCc2cc(F)c(Oc3ccnc(C(F)(F)F)c3)c(F)c2)cc2n1C[C@@H]1CCCN21 [Example 2, (S)-3-((3,5-difluoro-4-((2-(trifluoromethyl)pyridin-4-yl)oxy)benzyl)oxy)-7,8,8a, 9-tetra hydropyrrolo[1′,2′:3,4]imidazo[1,2-c]pyrimidin-1(6H)-one] | – | – | – | – | – | 20 | 0.316 |
| O=c1nc(OCc2cc(F)c(Oc3ccnc(C(F)(F)F)c3)c(F)c2)cc2n1C[C@H]1CCCN21 [Example 1, (R)-3-((3,5-difluoro-4-((2-(trifluoromethyl)pyridin-4-yl)oxy)benzyl)oxy)-7,8,8a, 9-tetra hydropyrrolo[1′,2′;3,4]imidazo[1,2-c]pyrimidin-1(6H)-one] | – | – | – | – | – | 7.94 | 0.158 |
